# Reference: PubChem BioAssay (NCI)
#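 Compound exposure: 48 hours, 5 concentrations, 96-well plates. At the GI50, growth is halved. At the TGI there is no net growth.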
# Tests used:
# Experiment in all cases: growth of human tumour cells (NCI), 48 h
# HOP-92 NSCLC = test system: HOP-92 NSCLC
# HT29 colon = test system: HT29 colon
# NCI-H522 lung = test system: NCI-H522 lung
# SNB-75 CNS = test system: SNB-75 CNS
# 786-0 renal = test system: 786-0 renal
# A498 renal = test system: A498 renal
# NCI-H226 lung = test system: NCI-H226 lung
# K-562 leukemia = test system: K-562 leukemia
# RPMI-8226 leukemia = test system: RPMI-8226 leukemia
# DU-145 prostate = test system: DU-145 prostate
SMILES,TGI (HOP-92 NSCLC) [µM],TGI (HT29 colon) [µM],TGI (NCI-H522 lung) [µM],TGI (SNB-75 CNS) [µM],TGI (786-0 renal) [µM],TGI (A498 renal) [µM],TGI (NCI-H226 lung) [µM],GI50 (K-562 leukemia) [µM],TGI (K-562 leukemia) [µM],GI50 (RPMI-8226 leukemia) [µM],TGI (RPMI-8226 leukemia) [µM],GI50 (DU-145 prostate) [µM],TGI (DU-145 prostate) [µM],GI50 (HT29 colon) [µM],GI50 (NCI-H522 lung) [µM],GI50 (SNB-75 CNS) [µM],GI50 (786-0 renal) [µM],GI50 (NCI-H226 lung) [µM],GI50 (HOP-92 NSCLC) [µM],GI50 (A498 renal) [µM]
CC(C)c1cccc2sc(NC(=O)C(=O)C(C#N)c3cccc4ccccc34)nc12 (configuration not stated),97.9,> 100,> 100,95.4,> 100,> 100,> 100,–,–,–,–,–,–,–,–,–,–,–,–,–
CCCOC(=O)N1CCN(/[N+]([O-])=N/Oc2ccc([N+](=O)[O-])cc2[N+](=O)[O-])CC1,–,> 100,15.7,36.1,2.95,–,4.3,0.505,> 100,0.49,2.41,1.81,3.53,2.05,3.16,18.2,1,1.46,–,–
C/C(CC(=O)Nc1ccc(Cl)cc1)=N\NC(N)=S,> 100,> 100,> 100,> 100,> 100,> 100,–,–,> 100,–,> 100,–,–,–,–,–,–,–,–,–
COC(=O)C1=CC2C(=O)OC1CC2C#N (configuration not stated),> 100,> 100,> 100,> 100,> 100,> 100,> 100,–,> 100,–,> 100,–,–,–,–,–,–,–,–,–
COc1cc(C(=O)NC2CCN(C)CC2)c(F)cc1Nc1ncc2c(n1)N(C1CCCC1)CC(F)(F)C(=O)N2C,0.391,11.1,< 0.0208,–,11.7,0.14,18.7,< 0.01,4,< 0.022,3.26,0.0179,11.2,< 0.01,< 0.01,–,0.0435,2.64,0.0326,< 0.0196
COc1ccc(/C=C2\S/C(=N/Nc3nc(-c4ccccc4)cs3)NC2=O)cc1OC,35.2,–,47.4,64.4,93.4,–,–,–,–,–,–,–,> 100,–,–,–,–,–,–,–
O=C(Nc1ccc(Cl)c(Cl)c1)O/N=C\c1c(Cl)ccc([N+](=O)[O-])c1Cl,–,3.53,2.88,9.5,13.5,22.8,12.4,0.825,6.56,1.62,4.3,1.73,3.23,1.91,1.34,2.12,3.96,3.06,–,10.6
COc1ccc(C2=NN(c3ccccc3)C[N+](c3ccc(OC)cc3)=N2)cc1,–,> 100,30,–,> 100,> 100,64.6,–,63.1,–,67.5,–,–,–,–,–,–,–,–,–
CC(=O)C1C(=O)C(=O)N(c2ccccc2C(C)C)C1=O (configuration not stated),> 100,> 100,> 100,> 100,> 100,> 100,> 100,–,> 100,–,> 100,–,–,–,–,–,–,–,–,–
